From EP0123485A1, “Colon-specific prodrug, the preparation and uses thereof” (priority 1983, dated 1984) come the findings set out here.

Data set [1] can be described thus: Recovery of steroid glycoside and free steroid from intestinal contents and tissues after intragastric administration. Type of data set: in vivo, Sprague-Dawley rats. To be noted: rat, in vivo, po. How it is done:
Male, Sprague-Dawley rats (ca 250 g) were maintained on laboratory rat chow and water ad lib. These rats were fasted overnight (16 hr.) prior to administration of glucoside or free steroid. Water bottles were removed from the cages at least 30 min prior to drug administration. Prednisolone glucoside, 2, (7.5 mg) or dexamethasone glucoside, 1, (7.5 mg) was administered by gastric intubation as a solution (0.5 mL) of water/95% ethanol (3:1). Prednisolone, 4, (5.25 mg) or dexamethasone, 3, (5.1 mg) was administered as a solution (0.5 mL) of water/95% ethanol (1:1). After the appropriate interval of time -3, 4, 5 or 6 hr.- the animals were sacrificed by carbon dioxide anesthesia followed by thoractomy. The small intestine and cecum were removed and cut into segments. Contents were separated from the tissues by rinsing the segments with cold, 0.9% saline (5.0 mL). The contents were immediately diluted to 30 mL with methanol. The tissues were suspended in 0.01 M KH2P04 (5.0 mL). Then an internal standard, either prednisolone, 4, or dexamethasone, 3, depending on the experimental steroid, was added to all the samples. Both the contents and tissues were then homogenized with a Polytron Homogenizer (Brinkman Inst. Co.) at med. speed for 1-2 min. The contents were then diluted to 40 mL total volume with methanol. The tissues were diluted to 25 mL total volume with methanol. All the samples were centrifuged (5,000 g, 15 min) and then the supernatant solutions were passed through membrane filters (0.45 micrometers, Versapor 800). The samples (1.4 mL) were then diluted with 0.01 M KH2PO4 (0.6 mL) and 20 microliters of the resulting solution injected directly onto the HPLC column for analysis.

Data set [2] can be described thus: Rate of hydrolysis in homogenized distal small intestine contents. To be noted: for Sp. act. / Tot. act.: DSI contents, 37 C.
Description: (§1) (The entire small intestine was divided into two, equal length segments to give PSI and DSI.) Gastrointestinal contents were obtained from male, Sprague-Dawley rats (300-400 g) which had been maintained on a stock diet (Purina rat chow) and water ad libitum. The intestinal contents of each section were pooled from four animals for each assay. […] Following removal, the contents were quickly weighed, then diluted to 100 milliliters (stomach, PSI, and DSI) or 200 milliliters (cecum) with cold 0.01 M phosphate buffer, pH 7.0. […] Homogenates were then stored on ice (ca 30 min). […] The reaction was run at 37 °C in a shaking water bath. The reaction was stopped after 10, 20, or 30 min by addition of 0.2 N NaOH (0.25 milliliters).
(§2) Stomach and PSI contents were diluted to 50 mL with 0.01 M phosphate buffer, pH 7.0, DSI contents to 25 mL, and cecal contents to 200 mL, prior to homogenization. The homogenates (2.1 mL of stomach, PSI, and DSI and 1.7 mL of cecum) were added to the appropriate substrate solution (0.01 M phosphate buffer, pH 7.0) to give 1.0 mM substrate in a total volume of 2.5 mL. At various times up to 30 min, aliquots (0.3 mL) were removed and quenched with MeOH (4.7 mL). After centrifugation (5,000 g, 10 min), the samples were diluted (1:1) with 0.01 M KH2PO4 and 20 microliters of the resulting solution was injected directly onto the HPLC column for analysis.
Data set [3] can be described thus: Rate of hydrolysis in homogenized proximal small intestine contents. To be noted: PSI contents, 37 C.
Data set [4] can be described thus: Rate of hydrolysis in homogenized cecal contents. Particulars: for hydrolysis by cecal contents, comparison in words: cecal content homogenates; for Sp. act. / Tot. act.: cecal contents, 37 C.
Description: as §1, §2
The nature of data set [5]: KM(app) and Vmax determinations (Eadie-Hofstee plots). The data set is classed as in vitro ADME, rat. To be noted: 15 min, 37 C. The method, then:
KM(app) and VMax Determinations. The KM(app)-Vmax for the hydrolysis of p-NP-glc and p-NP-gal were determined using pooled cecal homogenates (200 mL) as described above. A range of substrate (56-1000 micromolar; final volume 2.25 mL) concentrations, spanning their apparent KM, was used for each reaction. The amount of cecal homogenate used was 0.04 mL. Velocities were obtained, in duplicate, at 37 °C in a shaking water bath and the reaction stopped by addition of 0.2 N NaOH (0.25 mL) after 15 min. Release of p-nitrophenol was measured spectrophotometrically at 403 nm. Eadie-Hofstee plots were used to determine the KM(app) (micromolar) and Vmax (micromolar/min/g) of both reactions. The wet weight (g), measured immediately after removal and pooling, was used throughout.
Again, cecal contents from four rats were pooled, weighed, diluted (100 mL, 0.01 M phosphate buffer, pH 7.0) and homogenized. A range of substrate concentrations (0.5-48 micromolar, final volume 2.5 mL) spanning the apparent KM, was used for each reaction. The amount of cecal homogenate used was 0.8 mL. Reactions were run, in duplicate, at 37°C in a shaking water bath. After 15 min, the reactions were stopped by removing aliquots (0.3 mL) and quenching them with MeOH (4.7 mL). […] Again, Eadie-Hofstee plots were used to determine the KM(app) and VMax.

Data set [6] is described as follows: Rate of hydrolysis in homogenized stomach contents. To be noted: 37 C.
[7] abbreviates: 1.0 mM prodrug, release of free steroid by HPLC.
The mark [8] stands for this setting: prodrug 0.5-48 micromolar, 0.8 mL cecal homogenate, release of free steroid by HPLC, listed as glucoside 5.
The mark [9] stands for this setting: prodrug 0.5-48 micromolar, 0.8 mL cecal homogenate, release of free steroid by HPLC, listed as glucoside 7.
Where [10] appears, read: prodrug 0.5-48 micromolar, 0.8 mL cecal homogenate, release of free steroid by HPLC, listed as galactoside 9.
Setting [11] is: prodrug 0.5-48 micromolar, 0.8 mL cecal homogenate, release of free steroid by HPLC, listed as galactoside 10.
[12] abbreviates: prodrug 0.5-48 micromolar, 0.8 mL cecal homogenate, release of free steroid by HPLC, listed as galactoside 11.
Where [13] appears, read: pH 7.0, 1.0 mM p-nitrophenyl substrate, p-nitrophenol at 403 nm.
The mark [14] stands for this setting: pH ca 5.0, 1.0 mM p-nitrophenyl substrate, p-nitrophenol at 403 nm.
The mark [15] stands for this setting: p-nitrophenyl substrate 56-1000 micromolar, 0.04 mL cecal homogenate, p-nitrophenol at 403 nm.

In data set [1], `C[C@@H]1C[C@H]2[C@@H]3CCC4=CC(=O)C=C[C@]4(C)[C@@]3(F)[C@@H](O)C[C@]2(C)[C@@]1(O)C(=O)CO` [Compound 3, 9 alpha-Fluoro-11 beta, 17 alpha-21 trihydroxy-16 alpha-methyl-3, 20-dioxopregna-1,4-diene, reference compound] had a recovery at 3 h of 3.9%. Further, the “free steroid recovered in the cecum, as equivalent of the administered dose” value in data set [1] (5 h) is 44%.

A word on the Km: it is the substrate concentration at which the rate is half of its maximum. Broadly, the Vmax is the rate approached at saturating substrate. With `CC12CCC(=O)C=C1CCC1C2C(O)CC2(C)C1CCC2(O)C(=O)COC1OC(CO)C(O)C(O)C1O` [Compound 5, 11 beta, 17 alpha-Dihydroxy-3, 20-dioxopregna-4-en-21-yl beta-D-glucopyranoside], the Sp. act. in data set [2] (setting [7]) is 39.2 nmoles/min/g wet weight; in data set [3] (setting [7]) it was 15.9 nmoles/min/g wet weight; in data set [4] (setting [7]), 30.5 nmoles/min/g wet weight; in data set [6] (setting [7]) it was 5.5 nmoles/min/g wet weight. The Tot. act. in data set [2] (setting [7]) came to 0.70 µmol/min; in data set [3] (setting [7]), 0.10 µmol/min; in data set [4] (setting [7]), 0.76 µmol/min; in data set [6] (setting [7]) it was 0.09 µmol/min. The “hydrolysis by cecal contents, comparison in words” value in data set [4] was “hydrolyzed more slowly than the other glucoside prodrugs”. Moreover, in data set [5] (setting [8]), the Km is 5.7 µM. In data set [5] (setting [8]), the Vmax amounted to 2.6 µM/min/g.

On to `CC12CCC(=O)C=C1CCC1C3CCC(O)(C(=O)COC4OC(CO)C(O)C(O)C4O)C3(C)CC(O)C12F` [Compound 7, 9 alpha-Fluoro-11 beta, 17 alpha-dihydroxy-3, 20-dioxopregna-4-en-21-yl beta-D-glucopyranoside], for which the Sp. act. in data set [2] (setting [7]) turned out to be 33.0 nmoles/min/g wet weight; in data set [3] (setting [7]), 12.3 nmoles/min/g wet weight; in data set [4] (setting [7]), 42.0 nmoles/min/g wet weight; in data set [6] (setting [7]), 7.7 nmoles/min/g wet weight. Moreover, the Tot. act. in data set [2] (setting [7]) is 0.43 µmol/min; in data set [3] (setting [7]) it was 0.08 µmol/min; in data set [4] (setting [7]) it was 1.4 µmol/min; in data set [6] (setting [7]), 0.14 µmol/min. Further, the “hydrolysis by cecal contents, comparison in words” value in data set [4] is “hydrolyzed more slowly than the other glucoside prodrugs”. Moreover, in data set [5] (setting [9]), the Km was determined as 4.4 µM. Moreover, the Vmax in data set [5] (setting [9]) worked out at 2.4 µM/min/g.

Consider `CC1CC2C3CCC4=CC(=O)C=CC4(C)C3(F)C(O)CC2(C)C1(O)C(=O)COC1OC(CO)C(O)C(O)C1O` [Compound 9, 9 alpha-Fluoro-11 beta, 17 alpha-dihydroxy-16 alpha-methyl-3, 20-dioxopregna-1,4-dien-21-yl beta-D-galactopyranoside], for which the Sp. act. in data set [2] (setting [7]) is 29.3 nmoles/min/g wet weight; in data set [3] (setting [7]), 11.7 nmoles/min/g wet weight; in data set [4] (setting [7]) it was 322 nmoles/min/g wet weight; in data set [6] (setting [7]), 2.0 nmoles/min/g wet weight. Further, the Tot. act. came to 0.41 µmol/min in data set [2] (setting [7]), 0.004 µmol/min in data set [3] (setting [7]), 6.5 µmol/min in data set [4] (setting [7]) and 0.004 µmol/min in data set [6] (setting [7]). In data set [2] (homogenates of DSI contents), the “hydrolysis by DSI contents, comparison in words” value is listed as “more resistant to hydrolysis than the other prodrugs”. The Km in data set [5] (setting [10]) was 13.3 µM. In data set [5] (setting [10]), the Vmax was found to be 3.9 µM/min/g.

With `CC12C=CC(=O)C=C1CCC1C2C(O)CC2(C)C1CCC2(O)C(=O)COC1OC(CO)C(O)C(O)C1O` [Compound 10, 11 beta, 17 alpha-dihydroxy-3,20-dioxopregna-l,4-dien-21-yl beta-D-galactopyranoside], the Sp. act. in data set [2] (setting [7]) turned out to be 122 nmoles/min/g wet weight; in data set [3] (setting [7]) it was 49.3 nmoles/min/g wet weight; in data set [4] (setting [7]) it was 665 nmoles/min/g wet weight; in data set [6] (setting [7]) it was 12.1 nmoles/min/g wet weight. Besides, the Tot. act. is 1.72 µmol/min in data set [2] (setting [7]), 0.23 µmol/min in data set [3] (setting [7]), 13 µmol/min in data set [4] (setting [7]) and 0.19 µmol/min in data set [6] (setting [7]). The Km in data set [5] (setting [11]) was found to be 20 µM. For the same compound, the Vmax in data set [5] (setting [11]) was 10.3 µM/min/g.

For `CC12CCC(=O)C=C1CCC1C2C(O)CC2(C)C1CCC2(O)C(=O)COC1OC(CO)C(O)C(O)C1O` [Compound 11, 11 beta, 17 alpha-Dihydroxy-3, 20-dioxopregna-4-en-21-yl beta-D-galactopyranoside], the Sp. act. amounted to 110 nmoles/min/g wet weight in data set [2] (setting [7]), 42.5 nmoles/min/g wet weight in data set [3] (setting [7]), 592 nmoles/min/g wet weight in data set [4] (setting [7]) and 12.5 nmoles/min/g wet weight in data set [6] (setting [7]). Also, the Tot. act. in data set [2] (setting [7]) came to 1.6 µmol/min; in data set [3] (setting [7]) it was 0.02 µmol/min; in data set [4] (setting [7]), 11.9 µmol/min; in data set [6] (setting [7]) it was 0.02 µmol/min. Moreover, in data set [5] (setting [12]), the Km was determined as 16.7 µM. Besides, the Vmax in data set [5] (setting [12]) came out at 10.2 µM/min/g.

`O=[N+]([O-])c1ccc(O[C@@H]2O[C@H](CO)[C@@H](O[C@@H]3O[C@H](CO)[C@@H](O)[C@H](O)[C@H]3O)[C@H](O)[C@H]2O)cc1` [p-NP-cel, p-nitrophenyl-beta-D-cellobioside, reference compound]: the Sp. act. is 26.0 nmoles/min/g wet weight in data set [2] (setting [13]), 7.2 nmoles/min/g wet weight in data set [3] (setting [13]), 96.5 nmoles/min/g wet weight in data set [4] (setting [13]) and 34.2 nmoles/min/g wet weight in data set [6] (setting [14]). For the same compound, the Tot. act. turned out to be 0.25 µmol/min in data set [2] (setting [13]), 0.05 µmol/min in data set [3] (setting [13]), 2.6 µmol/min in data set [4] (setting [13]) and 0.35 µmol/min in data set [6] (setting [14]).

For `O=[N+]([O-])c1ccc(O[C@@H]2O[C@H](CO)[C@H](O)[C@H](O)[C@H]2O)cc1` [p-NP-gal, p-nitrophenyl-beta-D-galactoside, reference compound], in data set [5] (setting [15]), the Km worked out at 166 µM and the Vmax amounted to 1233 µM/min/g.

Consider `O=[N+]([O-])c1ccc(O[C@@H]2O[C@H](CO)[C@@H](O)[C@H](O)[C@H]2O)cc1` [p-NP-glc, p-nitrophenyl-beta-D-glucoside, reference compound], for which, in data set [5] (setting [15]), the Km was determined as 360 µM and the maximum rate (Vmax) stood at 697 µM/min/g.
